Like-named read-outs stand apart in the source and are kept apart here.
Target: human cannabinoid CB2 receptor (Homo sapiens, UniProt P34972)
Test: Cannabinoid CB2 receptor agonist activity (yeast reporter assay, FDGlu fluorescence)
Format: cell-based
Conditions: for Emax: read-out: efficacy value (Emax relative to HU210) at the cloned human cannabinoid CB2 receptor
In short: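 S. cerevisiae MMY23 expressing human CB2 with a Gpa1/Gαi3 chimeric G-protein, grown 24 h at 30 °C with agonist (1% DMSO) in selective media containing 10 mM 3-aminotriazole and FDGlu, pH 7.0. Fluorescein fluorescence (485/535 nm) fitted by four-parameter curve; Emax and EMR relative to HU210.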

[1] = EC50 value at the cloned human cannabinoid CB2 receptor
[2] = read-out: EC50 value at the cloned human cannabinoid CB2 receptor

Sequence of human cannabinoid CB2 receptor (P34972 whole entry): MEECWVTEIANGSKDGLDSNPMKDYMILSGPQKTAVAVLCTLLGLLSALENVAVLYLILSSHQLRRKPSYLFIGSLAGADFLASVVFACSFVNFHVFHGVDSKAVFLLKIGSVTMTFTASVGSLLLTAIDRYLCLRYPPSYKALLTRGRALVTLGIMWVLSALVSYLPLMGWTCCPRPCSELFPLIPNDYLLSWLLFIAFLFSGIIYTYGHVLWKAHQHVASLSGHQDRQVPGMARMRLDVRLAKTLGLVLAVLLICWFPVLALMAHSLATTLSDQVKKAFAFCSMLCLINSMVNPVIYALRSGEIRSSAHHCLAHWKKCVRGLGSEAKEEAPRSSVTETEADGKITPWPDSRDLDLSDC

| EC50 [2] [nM] | Structure (SMILES) | EC50 [1] [nM] | Emax [%] |
| --- | --- | --- | --- |
| – | O=C(NCC1CCC1)c1cnc(Nc2ccc(Br)cc2Cl)nc1C(F)(F)F [Example 227, 2-(2-Chloro-4-bromo-phenylamino)-4-trifluoromethyl-pyrimidine-5-carboxylic acid cyclobutylmethyl-amide] | 20 to 300 | > 50 |
| – | Cc1ccc(Cl)c(Nc2ncc(C(=O)NCC3CCOCC3)c(C(F)(F)F)n2)c1 [Example 113, 2-(2-Chloro-5-methyl-phenylamino)-4-tri-fluoromethyl-pyrimidine-5-carboxylic acid (tetrahydropyran-4-ylmethyl)-amide] | 300 to 1000 | > 50 |
| – | O=C(NCC1CCCCC1)c1cnc(Nc2cccc(Cl)c2)nc1C(F)(F)F [Example 4, 2-(3-Chlorophenylamino)-4-trifluoromethylpyrimidine-5-carboxylic acid cyclohexylmethylamide] | 20 to 300 | > 50 |
| – | Cc1cc(Cl)ccc1Nc1ncc(C(=O)NCC2CCC2)c(C(F)(F)F)n1 [Example 253, 2-(2-Methyl-4-chloro-phenylamino)-4-trifluoromethyl-pyrimidine-5-carboxylic acid cyclobutylmethyl-amide] | 20 to 300 | > 50 |
| – | O=C(NCC1CCC1)c1cnc(Nc2cccc(Cl)c2F)nc1C(F)(F)F [Example 195, 2-(3-Chloro-2-fluorophenylamino)-4-trifluoromethyl-pyrimidine-5-carboxylic acid cyclobutylmethyl-amide] | 20 to 300 | > 50 |
| 20 to 300 | O=C(NC1CCC1)c1cnc(Nc2cccc(Br)c2)nc1C(F)(F)F [Example 47, 2-(3-Bromophenylamino)-4-trifluoromethylpyrimidine-5-carboxylic acid cyclobutylamide] | – | – |
| – | O=C(NCc1ccc(F)cc1)c1cnc(Nc2cc(Cl)ccc2Cl)nc1C(F)(F)F [Example 366, 2-(2,5-Dichloro-phenylamino)-4-trifluoromethyl-pyrimidine-5-carboxylic acid 4-fluoro-benzylamide] | 20 to 300 | – |
| – | O=C(c1cnc(Nc2cccc(Cl)c2Cl)nc1C(F)(F)F)N1CCOCC1 [Example 6, 1-[2-(2,3-Dichlorophenylamino)-4-trifluoromethylpyrimidin-5-yl]-1-morpholin-4-yl-methanone] | 20 to 300 | > 50 |
| – | O=C(NCC1CCC1)c1cnc(Nc2ccccc2Cl)nc1C(F)(F)F [Example 257, 2-(2-Chlorophenylamino)-4-trifluoromethyl-pyrimidine-5-carboxylic acid cyclobutylmethyl-amide] | 300 to 1000 | > 50 |
| – | O=C(NCc1ccccc1)c1cnc(Nc2c(Cl)cccc2Cl)nc1C(F)(F)F [Example 363, 2-(2,6-Dichloro-phenylamino)-4-trifluoromethyl-pyrimidine-5-carboxylic acid benzylamide] | 20 to 300 | – |
| – | O=C(NCc1ccncc1)c1cnc(Nc2cc(Cl)cc(Cl)c2)nc1C(F)(F)F [Example 287, 2-(3,5-Dichlorophenylamino)-4-trifluoromethylprimidine-5-carboxylic acid (pyridin-4-ylmethyl)amide] | 20 to 300 | – |
| – | O=C(NCc1ccc(F)cc1)c1cnc(Nc2ccc(Cl)c(Cl)c2)nc1C(F)(F)F [Example 367, 2-(3,4-Dichloro-phenylamino)-4-trifluoromethyl-pyrimidine-5-carboxylic acid 4-fluoro-benzylamide] | 20 to 300 | – |
| – | O=C(NCC1CCOCC1)c1ccc(Nc2cccc(Cl)c2)nc1C(F)(F)F [Example 662, 6-(3-Chloro-phenylamino)-N-(tetrahydro-pyran-4-ylmethyl)-2-trifluoromethyl-nicotinamide] | – | > 50 |
| – | COc1ccccc1Nc1ncc(C(=O)NCc2ccccc2)c(C(F)(F)F)n1 [Example 280, 2-(2-Methoxyphenylamino)-4-trifluoromethylpyrimidine-5-carboxylic acid benzyl-amide] | 20 to 300 | > 50 |
| – | N#Cc1ccc(CNC(=O)c2cnc(Nc3cccc(Cl)c3)nc2C(F)(F)F)cc1 [Example 271, 2-(3-Chlorophenylamino)-4-trifluoromethylpyrimidine-5-carboxylic acid 4-cyanobenzyl-amide] | 20 to 300 | > 50 |
| – | O=C(NCc1ccc(F)cc1)c1cnc(Nc2cc(Cl)ccc2F)nc1C(F)(F)F [Example 349, 2-(5-Chloro-2-fluoro-phenylamino)-4-trifluoromethyl-pyrimidine-5-carboxylic acid 4-fluoro-benzylamide] | 20 to 300 | – |
| – | N#Cc1ccc(CNC(=O)c2cnc(Nc3cc(Cl)cc(Cl)c3)nc2C(F)(F)F)cc1 [Example 291, 2-(3,5-Dichlorophenylamino)-4-trifluoromethylpyrimidine-5-carboxylic acid 4-cyanobenzylamide] | 20 to 300 | – |
| – | CC(C)(C)CNC(=O)c1cnc(Nc2cccc(Cl)c2)nc1C(F)(F)F [Example 28, 2-(3-Chloro-phenylamino)-4-trifluoromethyl-pyrimidine-5-carboxylic acid (2,2-dimethyl-propyl)-amide] | 300 to 1000 | > 50 |

| EC50 [2] [nM] | Structure (SMILES) | EC50 [1] [nM] | Emax [%] |
| --- | --- | --- | --- |
| – | CN(Cc1ccccc1)C(=O)c1cnc(Nc2cccc(Cl)c2Cl)nc1C(F)(F)F [Example 272, 2-(2,3-Dichlorophenylamino)-4-trifluoromethylpyrimidine-5-carboxylic acid N-benzyl-N-methylamide] | 20 to 300 | – |
| – | N#Cc1c(Cl)cccc1Nc1ncc(C(=O)NCC2CCOCC2)c(C(F)(F)F)n1 [Example 109, 2-(3-Chloro-2-cyano-phenylamino)-4-tri-fluoromethyl-pyrimidine-5-carboxylic acid (tetrahydropyran-4-ylmethyl)-amide] | 300 to 1000 | > 50 |
| 300 to 1000 | COc1ccccc1Nc1ncc(C(=O)N(C)Cc2ccccc2)c(C(F)(F)F)n1 [Example 296, 2-(2-Methoxy-phenylamino)-4-trifluoromethyl-pyrimidine-5-carboxylic acid N-benzyl-N-methyl-amide] | – | – |
| – | N#Cc1ccc(CNC(=O)c2cnc(Nc3cccc(F)c3)nc2C(F)(F)F)cc1 [Example 306, 2-(3-Fluoro-phenylamino)-4-trifluoromethyl-pyrimidine-5-carboxylic acid N-(4-cyano-benzyl)amide] | 300 to 1000 | > 50 |
| – | O=C(NCC1CCCCC1)c1cnc(Nc2ccc(Br)cc2C(F)(F)F)nc1C(F)(F)F [Example 106, 2-(2-Trifluoromethyl-4-bromophenylamino)-4-trifluoromethyl-pyrimidine-5-carboxylic acid cyclohexylmethyl-amide] | 300 to 1000 | > 50 |
| – | O=C(NC1CCCC1)c1cnc(Nc2cc(Cl)cc(Cl)c2)nc1C(F)(F)F [Example 75, 3,5-Dichlorophenylamino-4-trifluoromethyl-pyrimidine-5-carboxylic acid cyclopentylamide] | 300 to 1000 | > 50 |
| – | O=C(NCc1ccc(F)cc1F)c1cnc(Nc2cccc(Cl)c2)nc1C(F)(F)F [Example 368, 2-(3-Chloro-phenylamino)-4-trifluoromethyl-pyrimidine-5-carboxylic acid 2,4-difluoro-benzylamide] | 20 to 300 | – |
| – | O=C(NCC1CCCCC1)c1cnc(Nc2ccc(Br)cc2F)nc1C(F)(F)F [Example 231, 2-(2-Fluoro-4-bromo-phenylamino)-4-trifluoromethyl-pyrimidine-5-carboxylic acid cyclohexylmethyl-amide] | 20 to 300 | > 50 |
| – | O=C(c1cnc(Nc2cccc(Cl)c2)nc1C(F)(F)F)N1CCOCC1 [Example 3, 1-[2-(3-Chlorophenylamino)-4-trifluoromethylpyrimidin-5-yl]-1-morpholin-4-yl-methanone] | 20 to 300 | > 50 |
| – | O=C(NCC1CCCCC1)c1cnc(Nc2cc(F)cc(F)c2)nc1C(F)(F)F [Example 169, 2-(3,5-Difluorophenylamino)-4-trifluoromethyl-pyrimidin-5-carboxylic acid cyclohexylmethyl-amide] | 20 to 300 | > 50 |
| – | CC(C)c1cc(Nc2ccc(C#N)cc2F)ncc1C(=O)NCC1CCCC1 [Example 751, 6-(4-Cyano-2-fluoro-phenylamino)-N-cyclopentylmethyl-4-isopropyl-nicotinamide] | – | > 50 |
| – | O=C(NCC1CCCC1)c1cnc(Nc2cc(Cl)cc(Cl)c2)nc1C(F)(F)F [Example 45, 2-(3,5-Dichlorophenylamino)-4-trifluoromethylpyrimidine-5-carboxylic acid cyclopentylmethyl-amide] | 20 to 300 | > 50 |
| – | O=C(NCC1CCC1)c1cnc(Nc2cccc(F)c2)nc1C(F)(F)F [Example 198, 2-(3-Fluorophenylamino)-4-trifluoromethyl-pyrimidine-5-carboxylic acid cyclobutylmethyl-amide] | 20 to 300 | > 50 |
| – | O=C(NCC1CCOCC1)c1cnc(Nc2cccc(F)c2)nc1C(F)(F)F [Example 31, 2-(3-Fluorophenylamino)-4-trifluoromethylpyrimidine-5-carboxylic acid (tetrahydropyran-4-ylmethyl)amide] | 20 to 300 | > 50 |
| – | O=C(NCc1ccnc(F)c1)c1cnc(Nc2cccc(F)c2)nc1C(F)(F)F [Example 354, 2-(3-Fluoro-phenylamino)-4-trifluoromethyl-pyrimidine-5-carboxylic acid (2-fluoro-pyridin-4-ylmethyl)-amide] | 20 to 300 | – |
| – | N#Cc1cccc(Nc2ncc(C(=O)NCC3CCOCC3)c(C(F)(F)F)n2)c1 [Example 172, 2-(3-Cyanophenylamino)-4-trifluoromethyl-pyrimidine-5-carboxylic acid (tetrahydropyran-4-ylmethyl)-amide] | 20 to 300 | > 50 |
| – | O=C(NCc1ccnc(F)c1)c1cnc(Nc2ccc(Cl)cc2Cl)nc1C(F)(F)F [Example 360, 2-(2,4-Dichloro-phenylamino)-4-trifluoromethyl-pyrimidine-5-carboxylic acid (2-fluoro-pyridin-4-ylmethyl)-amide] | 20 to 300 | – |
